From patent US11660293B2, “Substituted 2-azabicyclo[3.1.1]heptane and 2-azabicyclo[3.2.1]octane derivatives as orexin receptor antagonists” (Chronos Therapeutics Limited, priority 2017, dated 2023)

Key:
[1] = molecular target: human Orexin type 1 receptors (Homo sapiens (Human), UniProt O43613); test: Scintillation Proximity Assay (SPA) binding assay, [3H]SB-674042 displacement, CHO-hOX1 membranes
Method: Scintillation Proximity Assay (SPA) Binding Assays CHO cells stably transfected with human Orexin type 1 receptors (CHO-hOX1) or HEK-293 cells transiently transfected with human Orexin type 2 receptors (HEK-hOX2) were collected after 16 h induction with 5 mM sodium butyrate. […] The binding was performed in a final volume of 200 μl. 100 μl of hOX1 or hOX2 beads-membranes suspension were added to 100 μl of [^3H]SB-674042 or [^3H]EMPA solutions (radioligand concentration 2 nM final in the assay), into the 96-well Isoplates containing the 2 μl/well of compounds to be tested. Nonspecific binding was measured in the presence of 1 μM Almorexant. Assay plates were then incubated at room temperature for 3 h before being counted in a Microbeta scintillation counter (PerkinElmer). Data were analysed by non-linear regression analysis using XLfit Software.

[2] = molecular target: human Orexin type 2 receptors (Homo sapiens (Human), UniProt O43614); test: Scintillation Proximity Assay (SPA) binding assay, [3H]EMPA displacement, HEK-hOX2 membranes
Sequence of human Orexin type 2 receptors (O43614 whole entry): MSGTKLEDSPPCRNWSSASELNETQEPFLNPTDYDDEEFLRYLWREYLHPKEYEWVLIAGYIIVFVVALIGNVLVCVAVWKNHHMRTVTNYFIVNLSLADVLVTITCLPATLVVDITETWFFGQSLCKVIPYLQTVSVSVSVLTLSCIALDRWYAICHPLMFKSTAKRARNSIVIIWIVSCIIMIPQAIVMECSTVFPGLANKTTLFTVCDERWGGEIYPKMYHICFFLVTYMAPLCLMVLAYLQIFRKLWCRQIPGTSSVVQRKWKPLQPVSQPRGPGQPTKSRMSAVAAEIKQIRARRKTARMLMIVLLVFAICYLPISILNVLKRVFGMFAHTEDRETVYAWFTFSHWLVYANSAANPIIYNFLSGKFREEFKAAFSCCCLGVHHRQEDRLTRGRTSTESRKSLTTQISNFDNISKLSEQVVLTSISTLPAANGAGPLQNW
Method: Scintillation Proximity Assay (SPA) Binding Assays
CHO cells stably transfected with human Orexin type 1 receptors (CHO-hOX1) or HEK-293 cells transiently transfected with human Orexin type 2 receptors (HEK-hOX2) were collected after 16 h induction with 5 mM sodium butyrate. The cell pellets were re-suspended, homogenized in 15 mM Tris/HCl pH=7.5, 1 mM EGTA, 0.3 mM EDTA, 2 mM MgCl2, protease inhibitors and centrifuged at 40,000 g (20 min, 4° C.). After re-suspension, homogenization and centrifugation as above, the final pellets were re-suspended in 75 mM Tris/HCl pH=7.5, 1 mM EGTA, 0.3 mM EDTA, 12.5 mM MgCl2, 250 mM Sucrose, protease inhibitors, divided into aliquots and frozen down at −80° C.
CHO-hOX1 cell membranes (6 μg ml^−1) or HEK-hOX2 membranes (8 μg ml^−1) were pre-coupled with 1.0 mg ml^−1 of Wheatgerm Agglutinin-coated Yttrium Silicate (YSi-WGA) SPA beads (Perkin Elmer) in buffer containing 25 mM HEPES pH=7.4, 1 mM CaCl2), 5 mM MgCl2, 0.01% (w/v) BSA, 0.02% (w/v) Pluronic F-127 by shaking at room temperature for 2.5-3 h.
The binding was performed in a final volume of 200 μl. 100 μl of hOX1 or hOX2 beads-membranes suspension were added to 100 μl of [^3H]SB-674042 or [^3H]EMPA solutions (radioligand concentration 2 nM final in the assay), into the 96-well Isoplates containing the 2 μl/well of compounds to be tested. Nonspecific binding was measured in the presence of 1 μM Almorexant. Assay plates were then incubated at room temperature for 3 h before being counted in a Microbeta scintillation counter (PerkinElmer).
Data were analysed by non-linear regression analysis using XLfit Software.

Sequence of human Orexin type 1 receptors (O43613 whole entry): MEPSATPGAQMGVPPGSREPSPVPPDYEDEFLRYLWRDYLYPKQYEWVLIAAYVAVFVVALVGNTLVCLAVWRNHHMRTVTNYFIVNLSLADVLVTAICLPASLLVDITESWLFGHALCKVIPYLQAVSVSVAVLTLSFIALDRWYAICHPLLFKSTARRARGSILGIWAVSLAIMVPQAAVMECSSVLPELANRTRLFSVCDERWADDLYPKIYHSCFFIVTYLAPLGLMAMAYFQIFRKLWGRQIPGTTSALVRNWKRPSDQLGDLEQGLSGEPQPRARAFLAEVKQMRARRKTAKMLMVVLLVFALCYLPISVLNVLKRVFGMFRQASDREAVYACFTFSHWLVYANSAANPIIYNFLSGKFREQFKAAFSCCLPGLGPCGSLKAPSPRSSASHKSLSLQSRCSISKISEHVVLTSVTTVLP

Row | SMILES | OX1 pKi (SPA binding) ([1]; Table 2, [3H]SB-674042 2 nM) | OX2 pKi (SPA binding) ([2]; Table 2, [3H]EMPA 2 nM) | OX1 pKi (SPA binding) ([1]; Table 1, [3H]SB-674042 2 nM) | OX2 pKi (SPA binding) ([2]; Table 1, [3H]EMPA 2 nM)
1 | Cc1ccc(-n2nccn2)c(C(=O)N2C3CC(C3)[C@@H](C)C2CNc2ccc3ccccc3n2)n1 (mixture of isomers) [Example 161, cis-N-({4-methyl-2-[6-methyl-3-(2H-1,2,3-triazol-2-yl)pyridine-2-carbonyl]-2-azabicyclo[3.1.1]heptan-3-yl}methyl)quinolin-2-amine] | 7.32 | 5.2 | – | –
2 | Cc1nc(C(=O)N2C(COc3ncc4ccn(C)c4n3)CC3CC2C3)c(-c2ccccc2)s1 (centres unmarked) [Example 57] | – | – | 7.35 | 6.86
3 | Cc1nc(C(=O)N2C3CC(C3)[C@H](C)C2COc2ccc(F)cc2)c(-c2ccccn2)s1 (single isomer, unassigned) [Example 124, (3S,4S) or (3R,4R)-3-[(4-fluorophenoxy)methyl]-4-methyl-2-[2-methyl-5-(pyridin-2-yl)-1,3-thiazole-4-carbonyl]-2-azabicyclo[3.1.1]heptane] | 8.43 | 6.3 | – | –
4 | Cc1ccc(-n2nccn2)c(C(=O)N2C3CC(C3)[C@@H](C)C2CNc2cnc3cc(F)ccc3n2)n1 (mixture of isomers) [Example 198, cis-6-fluoro-N-({4-methyl-2-[6-methyl-3-(2H-1,2,3-triazol-2-yl)pyridine-2-carbonyl]-2-azabicyclo[3.1.1]heptan-3-yl}methyl)quinoxalin-2-amine] | 8.07 | 6.27 | – | –
5 | Cc1ccc(-n2nccn2)c(C(=O)N2C3CC(C3)[C@@H](C)C2CNc2nc3cc(F)ccc3s2)n1 (mixture of isomers) [Example 157, cis-5-fluoro-N-({4-methyl-2-[6-methyl-3-(2H-1,2,3-triazol-2-yl)pyridine-2-carbonyl]-2-azabicyclo[3.1.1]heptan-3-yl}methyl)-1,3-benzothiazol-2-amine] | 7.84 | 5.63 | – | –
6 | Cc1nc(C(=O)N2C3CC(C3)[C@H](C)C2COc2ccc(F)cc2)c(-n2nccn2)s1 (mixture of isomers) [Example 126, trans-3-[(4-fluorophenoxy)methyl]-4-methyl-2-[2-methyl-5-(2H-1,2,3-triazol-2-yl)-1,3-thiazole-4-carbonyl]-2-azabicyclo[3.1.1]heptane] | 7.39 | 5.7 | – | –
7 | Cc1ccc(-n2nccn2)c(C(=O)N2C(COc3ccc(F)cc3)CC3CC2C3)n1 (centres unmarked) [Example 39] | – | – | 7.64 | 6.19
8 | Cc1nc(C(=O)N2C(COc3nc4ccc(F)cc4s3)CC3CC2C3)c(-c2ccccc2)s1 (centres unmarked) [Example 54] | – | – | 7.77 | 7.03
9 | C[C@@H]1C2CC(C2)N(C(=O)c2cc(C#N)ccc2-n2nccn2)C1CNc1nc2cccnc2s1 (stereo partly drawn) [Example 231, cis-3-{4-methyl-3-[({[1,3]thiazolo[5,4-b]pyridin-2-yl}amino)methyl]-2-azabicyclo[3.1.1]heptane-2-carbonyl}-4-(2H-1,2,3-triazol-2-yl)benzonitrile] | 8.2 | 5.21 | – | –
10 | Cc1ccc(-n2nccn2)c(C(=O)N2C3CC(C3)[C@@H](C)C2CNc2nc3ccc(F)cc3o2)n1 (single isomer, unassigned) [Example 219, 6-fluoro-N-{[(3S,4R) or (3R,4S)-4-methyl-2-[6-methyl-3-(2H-1,2,3-triazol-2-yl)pyridine-2-carbonyl]-2-azabicyclo[3.1.1]heptan-3-yl]methyl}-1,3-benzoxazol-2-amine] | 8.71 | 5.79 | – | –
11 | Cc1nc(C(=O)N2C(COc3ccc(F)c(F)c3)CC3CC2C3)c(-c2ccccc2)s1 (centres unmarked) [Example 47] | – | – | 7.61 | 6.91
12 | Cc1ccc(-n2nccn2)c(C(=O)N2C3CC(C3)[C@H](C)C2COc2ccc(Cl)cc2)n1 (stereo partly drawn) [Example 112, trans-3-[(4-chlorophenoxy)methyl]-4-methyl-2-[6-methyl-3-(2H-1,2,3-triazol-2-yl)pyridine-2-carbonyl]-2-azabicyclo[3.1.1]heptane] | – | – | 7.83 | 5.92
13 | Cc1ccc(-n2nccn2)c(C(=O)N2C3CC(C3)[C@H](C)C2CNc2ccc(Cl)cn2)n1 (mixture of isomers) [Example 148, trans-5-chloro-N-({4-methyl-2-[6-methyl-3-(2H-1,2,3-triazol-2-yl)pyridine-2-carbonyl]-2-azabicyclo[3.1.1]heptan-3-yl}methyl)pyridin-2-amine] | 6.85 | 5.62 | – | –
14 | Cc1nc(C(=O)N2C3CC(C3)[C@@H](C)C2COc2ccc(F)cc2)c(-c2cnccn2)s1 (mixture of isomers) [Example 136, cis-3-[(4-fluorophenoxy)methyl]-4-methyl-2-[2-methyl-5-(pyrazin-2-yl)-1,3-thiazole-4-carbonyl]-2-azabicyclo[3.1.1]heptane] | 7.26 | 5.92 | – | –
15 | Cc1ccc(-n2nccn2)c(C(=O)N2C3CC(C3)[C@H](C)C2COc2ccc(Cl)cc2)n1 (single isomer, unassigned) [Example 119, (3S,4S) or (3R,4R)-3-[(4-chlorophenoxy)methyl]-4-methyl-2-[6-methyl-3-(2H-1,2,3-triazol-2-yl)pyridin-2-carbonyl]-2-azabicyclo[3.1.1]heptane] | 7.08 | 5.77 | – | –
16 | Cc1ccc(-n2nccn2)c(C(=O)N2C3CC(C3)[C@@H](C)C2CNc2cnc(C(F)(F)F)cn2)c1 (some centres unmarked) [Example 254] | 8.37 | 5.12 | – | –
17 | Cc1ccc(-n2nccn2)c(C(=O)N2C3CC(C3)[C@@H](C)C2CNc2ccc(F)c(C)n2)n1 (mixture of isomers) [Example 196, cis-5-fluoro-6-methyl-N-({4-methyl-2-[6-methyl-3-(2H-1,2,3-triazol-2-yl)pyridine-2-carbonyl]-2-azabicyclo[3.1.1]heptan-3-yl}methyl)pyridin-2-amine] | 7.65 | 5.74 | – | –
18 | Cc1nc(C(=O)N2C3CC(C3)[C@H](C)C2COc2ccc(F)cc2)c(-c2ncccn2)s1 (mixture of isomers) [Example 113, trans-3-[(4-fluorophenoxy)methyl]-4-methyl-2-[2-methyl-5-(pyrimidin-2-yl)-1,3-thiazole-4-carbonyl]-2-azabicyclo[3.1.1]heptane] | 8.21 | 5.72 | – | –
19 | Cc1ccc(-n2nccn2)c(C(=O)N2C3CC(C3)[C@H](C)C2CNc2nc3ccc(F)cc3s2)n1 (some centres unmarked) [Example 147] | 7.57 | 6.66 | – | –
20 | COc1nc(C(=O)N2C(COc3ccc(F)cc3)CC3CC2C3)c(-c2ccccc2)s1 (centres unmarked) [Example 52] | – | – | 7.71 | 6.79
21 | C[C@@H]1C2CC(C2)N(C(=O)c2cc(Cl)ccc2-n2nccn2)C1CNc1nc2ccc(F)cc2s1 (single isomer, unassigned) [Example 173, N-({(3R,4S) or (3S,4R)2-[5-chloro-2-(2H-1,2,3-triazol-2-yl)benzoyl]-4-methyl-2-azabicyclo[3.1.1]heptan-3-yl}methyl)-6-fluoro-1,3-benzothiazol-2-amine] | 9.36 | 6.53 | – | –
22 | C[C@@H]1C2CC(C2)N(C(=O)c2cc(C#N)ccc2-n2nccn2)C1CNc1cnc2cc(F)ccc2n1 (mixture of isomers) [Example 238, cis-3-(3-{[(6-fluoroquinoxalin-2-yl)amino]methyl}-4-methyl-2-azabicyclo[3.1.1]heptane-2-carobnyl)-4-(2H-1,2,3-triazol-2-yl)benzonitrile] | 7.98 | 6.32 | – | –
23 | Cc1nc(C(=O)N2C3CC(C3)[C@H](C)C2COc2ccc(F)cc2)c(-c2cnccn2)s1 (mixture of isomers) [Example 121, trans-3-[(4-fluorophenoxy)methyl]-4-methyl-2-[2-methyl-5-(pyrazin-2-yl)-1,3-thiazole-4-carbonyl]-2-azabicyclo[3.1.1]heptane] | 7.36 | 5.54 | – | –
24 | O=C(c1nc(Cl)sc1-c1ccccc1)N1C(COc2ccc(F)cc2)CC2CC1C2 (centres unmarked) [Example 51] | – | – | 7.22 | –
